# Data taken from US20080096807A1, “Cyclic vasoactive intestinal peptide receptor-2 agonists” (priority 2006, published 2008).
# Bridge positions count the residues as written; N and C are the ends. Square brackets hold non-standard residues; d marks the D form. Peptide text beside a SMILES is read from it. ξ: configuration not given here. Thr(3ξ) = CC(O)[C@H](N)C(=O)O; Nle = CCCC[C@H](N)C(=O)O
# What was measured:
# VPAC2 receptor = molecular target: T1, VPAC2 receptor (Homo sapiens, UniProt P41587); experiment: Sup-T1 cAMP agonist assay; type: cell-based; conditions: human T-lymphoid cell line Sup-T1 expressing VPAC2 receptor; cAMP EIA; 5 min at room temperature; read-out: Sup-T1 cAMP EC50
# T1 construct: The human T-lymphoid cell line Sup-Ti, which expresses the VPAC2 receptor; host or cells: Sup-T1 (Sup-Ti [sic]) human T-lymphoid cell line
# T1 sequence (P41587 24-438): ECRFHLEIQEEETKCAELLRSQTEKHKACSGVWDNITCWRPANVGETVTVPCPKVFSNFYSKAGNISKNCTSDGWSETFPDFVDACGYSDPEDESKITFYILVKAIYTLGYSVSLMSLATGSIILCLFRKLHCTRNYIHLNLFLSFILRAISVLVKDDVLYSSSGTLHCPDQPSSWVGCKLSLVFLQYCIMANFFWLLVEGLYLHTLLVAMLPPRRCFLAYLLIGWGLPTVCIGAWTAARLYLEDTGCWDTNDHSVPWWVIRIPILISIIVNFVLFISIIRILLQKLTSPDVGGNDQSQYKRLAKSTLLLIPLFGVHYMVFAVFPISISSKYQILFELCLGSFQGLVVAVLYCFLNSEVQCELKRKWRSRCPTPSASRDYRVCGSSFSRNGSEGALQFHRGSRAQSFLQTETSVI
# Experimental: The human T-lymphoid cell line Sup-Ti, which expresses the VPAC2 receptor, was obtained from the American Type Culture Collection (ATCC, CRL-1942) and maintained in growth medium at densities between 0.2 and 2×10^6 cells/ml in a 37° C. CO2 incubator. The growth medium was RPMI 1640 (Invitrogen) supplemented with 25 mM HEPES buffer and 10% fetal bovine serum (Gemini Bioproducts).
# To evaluate VPAC2 agonist compound activity, cells in log-phase growth were washed once with growth medium at room temperature and plated into 96-well plates at a density of 4×10^4 cells per well in 150 uL of growth medium. Fifty uL of the compounds to be tested, prepared at appropriate concentrations in growth medium, were then added to designated wells. After 5 min at room temperature, the cells were lysed by adding 25 uL of lysis reagent 1A (cAMP Biotrak EIA system, Amersham Biosciences, RPN225) to each well. The 96-well plates were kept at room temperature for 10 min with shaking and then stored at 4° C. until analysis for cAMP (within 2 hr).
# Cyclic AMP levels were determined in 100 uL of each lysate using the cAMP Biotrak Enzymeimmunoassay (EIA) kit according to the manufacture's instructions (Amersham Biosciences, RPN225). The activity of each VPAC2 agonist compound (EC50 value) was estimated by fitting the 7-concentration dose response data to a sigmoidal dose-response equation provided by the GraphPad Prism program (GraphPad Software, Inc.).
# [1] = molecular target: T2, human neutrophil elastase (Homo sapiens, UniProt P08246); experiment: Peptide stability to neutrophil elastase (RP HPLC ESI MS); conditions: halftime with human neutrophil elastase 1 to 2 μg/mL in PBS, ambient temperature, normalized to halftime of the reference standard
# T2 sequence (P08246 30-247 limits assumed): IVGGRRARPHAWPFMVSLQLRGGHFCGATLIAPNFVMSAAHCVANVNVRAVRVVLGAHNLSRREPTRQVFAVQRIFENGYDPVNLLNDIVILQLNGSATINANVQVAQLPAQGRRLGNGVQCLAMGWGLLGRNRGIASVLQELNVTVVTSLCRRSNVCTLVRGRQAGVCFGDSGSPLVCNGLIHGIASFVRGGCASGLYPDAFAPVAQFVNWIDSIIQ
Compound,EC50 (VPAC2 receptor),Relative elastase stability [1]
CCCC[C@H](NC(=O)[C@H](CCCNC(=N)N)NC(=O)[C@H](CCCCN)NC(=O)[C@H](CCCNC(=N)N)NC(=O)[C@H](CC(C)C)NC(=O)[C@H](CCCCN)NC(=O)[C@@H](NC(=O)[C@H](Cc1ccc(O)cc1)NC(=O)[C@H](CC(N)=O)NC(=O)[C@H](CCC(=O)O)NC(=O)[C@@H](NC(=O)[C@H](Cc1ccccc1)NC(=O)[C@H](CO)NC(=O)[C@H](C)NC(=O)[C@H](CC(=O)O)NC(=O)[C@H](CO)NC(=O)[C@H](Cc1c[nH]cn1)NC(C)=O)C(C)O)C(C)O)C(=O)N[C@@H](CCCCN)C(=O)N[C@@H](C)C(=O)N[C@@H](CCCCN)C(=O)N[C@H]1CCCCNC(=O)C[C@@H](C(=O)N[C@@H](CC(C)C)C(=O)N[C@@H](CCCCN)C(=O)N[C@@H](CCCCN)C(=O)NCC(=O)NCC(=O)N[C@H](C(N)=O)C(C)O)NC(=O)[C@H](CC(N)=O)NC(=O)[C@H](CC(C)C)NC(=O)[C@H](Cc2ccc(O)cc2)NC1=O (stereo partly drawn) [Example 16] (Ac-HSDASF[Thr(3ξ)]ENY[Thr(3ξ)]KLRKR[Nle]KAKKYLNDLKKGG[Thr(3ξ)]-NH2; lactam 21-25),1030 nM,4.4
CCCC[C@H](NC(=O)[C@H](CCC(N)=O)NC(=O)[C@H](CCCCN)NC(=O)[C@H](CCCNC(=N)N)NC(=O)[C@H](CC(C)C)NC(=O)[C@H](CCCCN)NC(=O)[C@@H](NC(=O)[C@H](Cc1ccc(O)cc1)NC(=O)[C@H](CC(N)=O)NC(=O)[C@H](CCC(=O)O)NC(=O)[C@@H](NC(=O)[C@H](Cc1ccccc1)NC(=O)[C@H](CCC(N)=O)NC(=O)[C@H](C)NC(=O)[C@H](CC(=O)O)NC(=O)[C@H](CO)NC(=O)[C@H](Cc1c[nH]cn1)NC(C)=O)C(C)O)C(C)O)C(=O)N[C@@H](C)C(=O)N[C@@H](C)C(=O)N[C@@H](CCCCN)C(=O)N[C@H]1CCCCNC(=O)C[C@@H](C(=O)N[C@@H](CC(C)C)C(=O)N[C@@H](CCCCN)C(=O)N[C@@H](CCCCN)C(=O)NCC(=O)NCC(=O)N[C@H](C(N)=O)C(C)O)NC(=O)[C@H](CC(N)=O)NC(=O)[C@H](CC(C)C)NC(=O)[C@H](Cc2ccc(O)cc2)NC1=O (stereo partly drawn) [Example 4] (Ac-HSDAQF[Thr(3ξ)]ENY[Thr(3ξ)]KLRKQ[Nle]AAKKYLNDLKKGG[Thr(3ξ)]-NH2; lactam 21-25),85 nM,3.9
CCCC[C@H](NC(=O)[C@H](CCC(N)=O)NC(=O)[C@H](CCCCN)NC(=O)[C@H](CCCNC(=N)N)NC(=O)[C@H](CC(C)C)NC(=O)[C@H](CCCCN)NC(=O)[C@@H](NC(=O)[C@H](Cc1ccc(O)cc1)NC(=O)[C@H](CC(N)=O)NC(=O)[C@H](CCC(=O)O)NC(=O)[C@@H](NC(=O)[C@H](Cc1ccccc1)NC(=O)[C@H](CC(=O)O)NC(=O)[C@H](C)NC(=O)[C@H](CC(=O)O)NC(=O)[C@H](CO)NC(=O)[C@H](Cc1c[nH]cn1)NC(C)=O)C(C)O)C(C)O)C(=O)N[C@@H](C)C(=O)N[C@@H](C)C(=O)N[C@@H](CCCCN)C(=O)N[C@H]1CCCCNC(=O)C[C@@H](C(=O)N[C@@H](CC(C)C)C(=O)N[C@@H](CCCCN)C(=O)N[C@@H](CCCCN)C(=O)NCC(=O)NCC(=O)N[C@H](C(N)=O)C(C)O)NC(=O)[C@H](CC(N)=O)NC(=O)[C@H](CC(C)C)NC(=O)[C@H](Cc2ccc(O)cc2)NC1=O (stereo partly drawn) [Example 3] (Ac-HSDADF[Thr(3ξ)]ENY[Thr(3ξ)]KLRKQ[Nle]AAKKYLNDLKKGG[Thr(3ξ)]-NH2; lactam 21-25),98 nM,4.5
